This passage reports IC50 results from patent US12371454B2, “Cyclic peptide compound having Kras inhibitory action” (priority 2019, dated 2025).

Starred links: 1 amine or outer side, 2 acyl side, 3 side chain; linkers in the order of their positions; H or OH if unused. Positions of bridges follow the written chain, without caps; N, C: chain ends. Non-standard residues stand in square brackets, D forms with d. Residues, ends and D or L forms follow the SMILES beside them. *: point of attachment. hPhe(3-Cl-4-CF3) = N[C@@H](CCc1ccc(C(F)(F)F)c(Cl)c1)C(=O)O; NMePhe(4-CF3) = CN[C@@H](Cc1ccc(C(F)(F)F)cc1)C(=O)O; hPhe(4-CF3) = N[C@@H](CCc1ccc(C(F)(F)F)cc1)C(=O)O; NMePhe(4-Cl) = CN[C@@H](Cc1ccc(Cl)cc1)C(=O)O; NMePhe(4-Me) = CN[C@@H](Cc1ccc(C)cc1)C(=O)O; NMePhe(2-Cl) = CN[C@@H](Cc1ccccc1Cl)C(=O)O; NMedβ3hAla = C[C@H](CC(=O)[*:2])N(C)[*:1]; X79 = CC(C)CCOC[C@H](CC(=O)[*:2])N[*:1]; NMeGly(cPent) = CN[C@H](C(=O)O)C1CCCC1; Phe(3-I) = N[C@@H](Cc1cccc(I)c1)C(=O)O; Pro(4,4-F2) = O=C(O)[C@@H]1CC(F)(F)CN1; NMeCha = CN[C@@H](CC1CCCCC1)C(=O)O; NMeChg = CN[C@H](C(=O)O)C1CCCCC1; NMeF = CN[C@@H](Cc1ccccc1)C(=O)O; NMeI = CC[C@H](C)[C@H](NC)C(=O)O; NMeD = CN[C@@H](CC(=O)O)C(=O)O; CH2CONHtBu = CC(C)(C)NC(=O)C*; NMeL = CN[C@@H](CC(C)C)C(=O)O; NMeV = CN[C@H](C(=O)O)C(C)C; d(β3hA) = C[C@@H](N)CC(=O)O; NMeS = CN[C@@H](CO)C(=O)O; NMeA = CN[C@@H](C)C(=O)O; NMeAib = CNC(C)(C)C(=O)O; Piperidide = C1CCN(*)CC1; Ac5c = NC1(C(=O)O)CCCC1; Aze = O=C(O)[C@@H]1CCN1; Aib = CC(C)(N)C(=O)O; βAla = NCCC(=O)O; Sar = CNCC(=O)O

In the assay the target is T1, Kras and SOS1 (biotin-tagged human Kras loaded with GDP, His-tagged human SOS1) (Homo sapiens, UniProt P01116, G12D).
T1 construct: made in house; host or cells: E. coli (stated for Kras only)
Briefly: Protein-protein interaction inhibition between Kras and SOS1 (KrasGl2D-SOS PPI) using AlphaScreen. The following applies: AlphaScreen; biotin-tagged human Kras loaded with GDP, His-tagged human SOS1; read-out: KRAS G12D-SOS PPI IC50. The format is binding. Summed up: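 Read-out is acceptor-bead light at 520-620 nm, arising when 680 nm-irradiated nickel donor beads pass singlet oxygen to streptavidin acceptors. The bead pair links His-tagged SOS1 with biotin-tagged, GDP-bound Kras from E. coli.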
For orientation: Alpha assays give light when donor and acceptor beads are brought close together.

T1 sequence (P01116 1-188 isoform P01116-2 G12D): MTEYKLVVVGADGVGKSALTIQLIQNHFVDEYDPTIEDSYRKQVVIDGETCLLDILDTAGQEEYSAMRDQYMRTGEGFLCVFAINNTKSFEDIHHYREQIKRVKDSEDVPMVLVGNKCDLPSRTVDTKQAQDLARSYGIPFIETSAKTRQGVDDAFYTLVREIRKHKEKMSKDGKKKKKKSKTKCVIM

As to `CC[C@H](C)[C@@H]1NC(=O)[C@H](CC(C)C)N(C)C(=O)C[C@@H](COCCC(C)C)NC(=O)[C@H](C(C)C)N(C)C(=O)C2(CCCC2)NC(=O)[C@@H]2CCCN2C(=O)[C@H](CCc2ccc(C(F)(F)F)c(Cl)c2)NC(=O)CN(C)C(=O)[C@H](CC2CCCCC2)N(C)C(=O)CN(C)C(=O)CN(C)C1=O` [Compound 992] (cyclo([Ac5c][NMeV][X79][NMeL]I[Sar][Sar][NMeCha][Sar][hPhe(3-Cl-4-CF3)]P)), the IC50 (as a rule, the concentration needed to halve the response being measured) turned out to be 180 nM. For the molecule `CC[C@H](C)[C@@H]1NC(=O)[C@H](CC(C)C)N(C)C(=O)C[C@@H](C(=O)N(C)C)N(C)C(=O)[C@H](C2CCCC2)N(C)C(=O)[C@H](C)NC(=O)[C@H](C)N(C)C(=O)[C@H](CCc2ccc(C(F)(F)F)c(Cl)c2)NC(=O)CN(C)C(=O)[C@H](CC2CCCCC2)N(C)C(=O)[C@@H]2CCN2C(=O)[C@H](C)N(C)C1=O` [Compound 993] ([NMeL]I[NMeA][Aze][NMeCha][Sar][hPhe(3-Cl-4-CF3)][NMeA]A[NMeGly(cPent)][NMeD]-NMe2; lactam N-11), the IC50 stood at 16 nM.

In the case of `CC[C@H](C)[C@@H]1NC(=O)[C@H](C)N(C)C(=O)C[C@@H](C)NC(=O)[C@H](C(C)C)N(C)C(=O)[C@H](Cc2ccccc2)N(C)C(=O)[C@H](CC(C)C)N(C)C(=O)[C@H](CCc2ccc(C(F)(F)F)c(Cl)c2)NC(=O)CN(C)C(=O)[C@H](Cc2ccc(Cl)cc2)N(C)C(=O)[C@@H]2CCN2C(=O)CN(C)C1=O` [Compound 994] (cyclo([Aze][NMePhe(4-Cl)][Sar][hPhe(3-Cl-4-CF3)][NMeL][NMeF][NMeV][d(β3hA)][NMeA]I[Sar])), the IC50 was 11 nM.

Turning to `CC[C@H](C)[C@@H]1NC(=O)[C@H](CC(C)C)N(C)C(=O)C[C@@H](C(=O)N2CCCCC2)N(C)C(=O)[C@H](C(C)C)N(C)C(=O)C2(CCCC2)NC(=O)[C@@H]2CCCN2C(=O)[C@H](CCc2ccc(C(F)(F)F)c(Cl)c2)NC(=O)CN(C)C(=O)[C@H](CC2CCCCC2)N(C)C(=O)[C@@H]2CCN2C(=O)[C@H](COCC(=O)NC(C)(C)C)N(C)C1=O` [Compound 998] ([NMeL]I[NMeS](CH2CONHtBu)[Aze][NMeCha][Sar][hPhe(3-Cl-4-CF3)]P[Ac5c][NMeV][NMeD]-Piperidide; lactam N-11), the IC50 amounted to 17 nM. Under `CC[C@H](C)[C@@H]1NC(=O)[C@H](CC(C)C)N(C)C(=O)C[C@@H](C)N(C)C(=O)[C@H]([C@@H](C)CC)N(C)C(=O)C2(CCCC2)NC(=O)[C@@H]2CC(F)(F)CN2C(=O)[C@H](CCc2ccc(C(F)(F)F)c(Cl)c2)NC(=O)CN(C)C(=O)[C@H](Cc2ccc(C(F)(F)F)cc2)N(C)C(=O)CN(C)C(=O)CN(C)C1=O` [Compound 1003] (cyclo([Ac5c][NMeI][NMedβ3hAla][NMeL]I[Sar][Sar][NMePhe(4-CF3)][Sar][hPhe(3-Cl-4-CF3)][Pro(4,4-F2)])) stands 8.4 nM. Turning to `CC[C@H](C)[C@@H]1NC(=O)CCNC(=O)[C@H](Cc2ccccc2)N(C)C(=O)[C@H](C2CCCCC2)N(C)C(=O)C2(CCCC2)NC(=O)[C@@H]2CCCN2C(=O)[C@H](CCc2ccc(C(F)(F)F)c(Cl)c2)NC(=O)CN(C)C(=O)[C@H](CC2CCCCC2)N(C)C(=O)CN(C)C(=O)CN(C)C1=O` [Compound 1007] (cyclo([Ac5c][NMeChg][NMeF][βAla]I[Sar][Sar][NMeCha][Sar][hPhe(3-Cl-4-CF3)]P)), the IC50 is 13 nM.

`CC[C@H](C)[C@@H]1NC(=O)[C@H](CC(C)C)N(C)C(=O)C[C@@H](C(=O)N(C)C)N(C)C(=O)[C@H](C2CCCC2)N(C)C(=O)C2(CCCC2)NC(=O)[C@H](Cc2ccccc2Cl)N(C)C(=O)[C@H](CCc2ccc(C(F)(F)F)c(Cl)c2)NC(=O)CN(C)C(=O)[C@H](CC2CCCCC2)N(C)C(=O)[C@@H]2CCN2C(=O)[C@H](C)N(C)C1=O` [Compound 1009] ([NMeL]I[NMeA][Aze][NMeCha][Sar][hPhe(3-Cl-4-CF3)][NMePhe(2-Cl)][Ac5c][NMeGly(cPent)][NMeD]-NMe2; lactam N-11): the IC50 was found to be 43 nM. Under `CC[C@H](C)[C@@H]1NC(=O)[C@H](CC(C)C)N(C)C(=O)C[C@@H](C)NC(=O)[C@H](CC(C)C)N(C)C(=O)C(C)(C)NC(=O)[C@@H]2CCCN2C(=O)[C@H](CCc2ccc(C(F)(F)F)cc2)NC(=O)CN(C)C(=O)[C@H](Cc2ccc(Cl)cc2)N(C)C(=O)CN(C)C(=O)CN(C)C1=O` [Compound 1013] (cyclo([Aib][NMeL][d(β3hA)][NMeL]I[Sar][Sar][NMePhe(4-Cl)][Sar][hPhe(4-CF3)]P)) stands 31 nM; under `CC[C@H](C)[C@@H]1NC(=O)[C@H](CC(C)C)N(C)C(=O)C[C@@H](C(=O)N2CCCCC2)N(C)C(=O)[C@H](CC(C)C)NC(=O)C(C)(C)N(C)C(=O)[C@H](Cc2ccccc2)NC(=O)[C@H](Cc2cccc(I)c2)NC(=O)CN(C)C(=O)[C@H](Cc2ccc(C)cc2)N(C)C(=O)[C@@H]2CCN2C(=O)[C@H](C)N(C)C1=O` [Compound 1015] ([NMeL]I[NMeA][Aze][NMePhe(4-Me)][Sar][Phe(3-I)]F[NMeAib]L[NMeD]-Piperidide; lactam N-11), 18 nM.
